Series [1] in a line: Auditory brainstem response test (ABR-TEST), hearing threshold. In kind it is in vivo, C57BL/6 mice. Particulars: for hearing threshold: hypoxia.
Method: The wave V reference value of ABR was determined by gradually attenuating the sound intensity in 5 dB steps from 80 dB SPL until the wave V and the noise floor were indistinguishable from the recorded traces. Data management and auditory brainstem response test were conducted using the TDT RZ6/BioSigRZ system (Tucker Davis Technologies, Alachua, FL, USA) in a noise attenuation chamber with a built-in Faraday box.
Electrodes were disposed on the subcutaneous tissue of each mouse to collect data. […] An isothermal pad was used to maintain the body temperature of the mouse, and the ABR test was conducted every two weeks for stability of the experimental groups.
Series [2] deals with SOD. Description: Superoxide dismutase (SOD) activity test in serum. In kind it is in vivo, C57BL/6 mice. More on the design: unit not given here. As for the experimental part: Specifically, the blood was reacted in an anticoagulant tube at 25° C. (room temperature) for 30 minutes, and then centrifuged at 2,000 × g for 15 minutes at 4° C. to prepare purified serum. The purified serum was stored at -80° C. for one month and diluted 1:5 with sample buffer before analysis, and then the amount of SOD in the body was measured using an SOD assay kit (No. 706002, Cayman Che., MI, USA). The SOD assay kit is a kit that uses tetrazolium salt to detect superoxide radicals generated by xanthine oxidase and hypoxanthine. […] The amount of oxidative stress in serum was analyzed by analyzing the SOD activity test result in Experimental Example <1-5>.

The conditions of series [3]: mouse.
The subject of series [4] is auditory hair cells. Description: Hair cell survival and damage by Myo7a immunostaining of cochlear slices. In kind it is in vivo, C57BL/6 mice. Particulars: normoxia; single condition.
Method: Specifically, an opening was made at the apex of the cochlear bone of the sacrificed mouse, and phosphate buffered saline at pH 7.4 containing 4% paraformaldehyde as a fixative was perfused at room temperature. The cochlea perfused with a fixative was immersed in Calci-Clear Rapid for 24 hours to demineralize, an OCT (Optimal Cutting Temperature) compound was inserted, and then the cochlea was cut into slices with a thickness of 2 to 5 µm using LEICA RM2145 (Leica Biosystems, Wetzlar, German). The cut cochlea was incubated in standard hematoxylin for 3 minutes and stained with eosin (H&E) for 60 seconds.
Specifically, the cochlear slice was fixed on a gelatin-coated slide having a thickness of 5 µm with 4% paraformaldehyde for 15 minutes and then dried at room temperature. The slice was incubated with 5% normal goat serum at room temperature for 1 hour to prevent nonspecific labeling, and incubated with primary antibody MY07A (1:200, ab3481, Abeam, UK) at 4° C. for 1 hour. […]
The images of auditory hair cells of all the cochlear slices were analyzed using a confocal microscope (Carl Zeiss Microscopy GmbH, Jena, Germany) and ZEN lite ver.2.3 (ZEN lite, Jena, Germany) software.
The survival rate was evaluated by analyzing Myo7a, a major protein present in auditory hair cells.

Consider one molecule from patent US20230309520A1, “AGE-RELATED HEARING LOSS ANIMAL MODEL AND CONSTRUCTION METHOD THEREFOR” (UNIVERSITY INDUSTRY FOUNDATION, YONSEI UNIVERSITY WONJU …, priority 2020, published 2023).

On to `O=C[C@H](O)[C@@H](O)[C@@H](O)[C@H](O)CO` [GI, D-galactose], for which the hearing threshold in series [1] (8, 16, 24 kHz analysis, initial value (increased from)) is on record as 30 dB; in series [1] (8, 16, 24 kHz analysis, value after 1 month (increased to)), 60 dB; in series [1] (8 kHz, final value (increased to), 3 months), 67 + 10.13 dB; in series [1] (8 kHz, initial value (increased from)), 34 + 3.76 dB; in series [1] (16 kHz, final value (increased to), 3 months), 60 + 7.33 dB; in series [1] (16 kHz, initial value (increased from)), 38 + 4.08 dB. In series [1] (normoxia, 8, 16, and 24 kHz), the “change in hearing threshold compared to control group” value is listed as “do not change significantly”. The “change in the hearing threshold” value in series [1] (normoxia, 8 kHz) is recorded as “no significant change”. For the same molecule, the “changes in the hearing thresholds” value in series [1] (normoxia, frequencies of 4 to 32 kHz, 3 months) is on record as “no significant changes”. Also, the “amount of SOD in serum” value in series [2] (hypoxia, 0 M) is 0.5914 ±0.000; in series [2] (hypoxia, 1 M), 0.5627 ± 0.005; in series [2] (hypoxia, 2 M), 0.5463 ± 0.005; in series [2] (hypoxia, 3 M), 0.5695 ± 0.059; in series [2] (normoxia, 0 M), 0.5955 ± 0.017; in series [2] (normoxia, 1 M), 0.5463 ± 0.005. In addition, the “amount of SOD in serum” value in series [2] (normoxia, 2 M) is reported as 0.5216 ± 0.005; in series [2] (normoxia, 3 M) it was 0.5148 ± 0.028. Also, the “Dermis Thickness” value in series [3] is given as 348.5 ±85.9. In series [4], the “damage to hair cells” value is “almost no damage to cells”.
